Laboratory results: patent US20240409607A1, “STABILIZED MHC MOLECULES” (Immatics Biotechnologies GmbH, priority 2021, published 2024)

How the values were obtained:
HLA-A*02:01_ds 22-71 [1] = experiment: TSA with fatty acids in 20 mM HEPES pH 7.0; format: binding, human; settings: 50 mM fatty acid, 20 mM HEPES pH 7.0, protein 0.1 mg/ml
Procedure: (§1) After refolding the protein was concentrated by ultrafiltration and purified by size exclusion chromatography. Fatty acids were dissolved in or diluted with water and neutralized with NaOH to give stock solution of 0.5 M pH 7.
In order to find optimal storage and handling conditions for peptide free recombinant HLA-A*02:01 preparations, different compounds were screened in a thermal shift assay (TSA). […] The additives indicated in table 3 were added or alternatively water was added as a control. The raw data was exported and the analysis of the melting temperature was performed in Microsoft Excel. Protein stability was monitored over a temperature range from 30° C. to 70° C. […] The temperature at which the maximal increase of fluorescence compared to the previous measurement was observed, is defined as melting point in the respective composition.

HLA-A*02:01_ds 22-71 [2] = settings: 0.1 mg/ml protein, 20 mM Tris pH 8.0, 150 mM NaCl; for protein stability (melting point) in thermal shift assay: sodium butyrate 50 mM, GM dipeptide 10 mM, water as control
Procedure: as §1
(§2) In order to find optimal storage and handling conditions for peptide free recombinant HLA-A*02:01 preparations, different compounds were screened in a thermal shift assay (TSA). Measurements were performed in the Applied Biosystems 7500 real time PCR instrument at a protein concentration of 0.1 mg/ml in a buffer of 20 mM Tris pH 8.0, 150 mM NaCl. The additives indicated in table 3 were added or alternatively water was added as a control. The raw data was exported and the analysis of the melting temperature was performed in Microsoft Excel. Protein stability was monitored over a temperature range from 30° C. to 70° C. […] The temperature at which the maximal increase of fluorescence compared to the previous measurement was observed, is defined as melting point in the respective composition.

HLA-A*02:01 ds_84-139 = experiment: TSA with fatty acid and/or GM loading dipeptide; format: binding, human; settings: fatty acid 50 mM final or GM 10 mM final
Procedure: as §2
(§3) Reference is made to FIGS. 5 to 7.

HLA-A*02:01_ds_22-71 = experiment: TSA with fatty acid and/or GM loading dipeptide; format: binding, human; settings: fatty acid 50 mM final or GM 10 mM final
Procedure: as §2, §3

HLA-A*0201 ds 22-71 = experiment: TSA-screen with 40 different buffer conditions (different pH); format: binding, human; settings: valeric acid 50 mM
Procedure: In a parallel TSA-screen with 40 different buffer conditions (MES pH between 5.8 to 7.2; BisTris pH between 5.8 to 7.2; MOPS pH between 6.5 to 7.9; HEPES pH 6.8 to 8.2; and Tris pH between 7.6 to 9.0), a clear link between pH conditions and stability of recombinant HLA was detected. In this experiment, a solution of 0.1 mg/ml HLA-A*0201 ds 22-71 in 20 mM HEPES pH 7.0 was supplemented with 0.1 volume of 1 M stock solution of the respective buffer. […] This pH range was also found to be optimal for peptide loaded HLA molecules. In order to test whether HLA is stabilized in different pH conditions by the fatty acids, a TSA-screen with the same 40 different buffer conditions was performed as described above. […] Accordingly, the stabilizing effect of the fatty acid on the HLA molecule was observed under different pH conditions.

In the case of CC(C)CCC(=O)O [4-methyl-valeric acid, 4-methyl-pentanoic acid], the “stabilizing effect on the HLA molecule (melting point), branched or unsaturated versus linear saturated fatty acids” value (HLA-A*02:01_ds 22-71 [1]) is reported as “showed a stabilizing effect on the HLA molecule”.
For CSCC[C@H](N)C(=O)O.NCC(=O)O [glycine-methionine, reference compound], the “protein stability (melting point) in thermal shift assay” value (HLA-A*02:01_ds 22-71 [2]) was “marked increase in protein stability”, the “stabilization of the HLA protein, single additive” value (from here on “stabilization of the HLA protein”) (HLA-A*02:01 ds_84-139) was “Stabilization of the HLA proteins was observed” and the “stabilization of the HLA protein” value (HLA-A*02:01_ds_22-71) was “Stabilization of the HLA proteins was observed”.
In the case of CCCCCC(=O)O [hexanoic acid], the “stabilization of the HLA protein” value (HLA-A*02:01 ds_84-139) is reported as “Stabilization of the HLA proteins was observed” and the “stabilization of the HLA protein” value (HLA-A*02:01_ds_22-71) is reported as “Stabilization of the HLA proteins was observed”.
With CCCC(=O)[O-].[Na+] [sodium butyrate, Sodium butyrate] the “stabilizing effect compared to the dipeptide glycine-methionine” value (HLA-A*02:01_ds 22-71 [2]; sodium butyrate 50 mM vs GM 10 mM) was “increased stabilizing effect”, the “protein stability (melting point) in thermal shift assay” value (HLA-A*02:01_ds 22-71 [2]) was “marked increase in protein stability” and the “stabilization of the HLA protein” value (HLA-A*02:01 ds_84-139) was “Stabilization of the HLA proteins was observed”. For the same molecule, the “stabilization of the HLA protein” value (HLA-A*02:01_ds_22-71) was “Stabilization of the HLA proteins was observed”.
In the case of CCCCC(=O)O [valeric acid, Pentanoic acid], the “stabilization of the HLA protein” value (HLA-A*02:01 ds_84-139) is reported as “Stabilization of the HLA proteins was observed”, the “stabilization of the HLA protein” value (HLA-A*02:01_ds_22-71) is reported as “Stabilization of the HLA proteins was observed” and the “stabilizing effect compared to tests without the fatty acid” value (HLA-A*0201 ds 22-71; 40 buffer conditions, MES, BisTris, MOPS, HEPES, Tris, pH 5.8 to 9.0, 100 mM buffer) is reported as “increased in all pH conditions tested”. The “stabilizing effect in the pH range of 6 to 7.2” value (HLA-A*0201 ds 22-71; pH 6 to 7.2) was “particularly increased”.
